Source: patent US20240174696A1, “2,8-DIAZASPIRO[4.5]DECANE COMPOUNDS” (Genentech, Inc., priority 2021, published 2024)
Counter-ions that a name gives are not always drawn.

Experiments:
[1] = molecular target: T1, Human LATS2 catalytic domain (Homo sapiens (Human), UniProt Q9NRM7); test: LATS2 High ATP HTRF Assay; assay type: biochemical; settings: no asterisk: LATS2 High ATP HTRF Assay, 5000 μM ATP, 0.05 nM LATS2
Outline: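 LATS2 catalytic domain (G553-V1088) co-purified with Mob1b, 0.05 nM, pre-incubated 10 min with compound, then 5000 μM ATP and 0.5 μM STK S1 peptide in HEPES pH7.2 for 2 h at room temperature. HTRF 665/620 nm read; IC50 by four-parameter fit, Ki via Cheng-Prusoff with ATP Km 105 μM.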

[2] = system: TAZ nuclear translocation in SW1990 cells; test: TAZ Nuclear Translocation Assay; assay type: cell-based; settings: Homo sapiens, 4 hours
Outline: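 SW1990 cells in RPMI1640/10% FBS treated with compounds for 4 h at 37 °C, then fixed and immunostained for TAZ with Hoechst nuclear counterstain and imaged by high-content imaging. Read-out is the nuclear/cytoplasmic-ring fluorescence ratio, normalized to DMSO (0%) and an inhibitor control (100%); EC50 from four-parameter fit.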

[3] = molecular target: Human LATS1 catalytic domain (Homo sapiens (Human), UniProt O95835); test: LATS1 High ATP HTRF Assay; assay type: biochemical; settings: 5000 μM ATP, 0.025 nM LATS1; Cheng-Prusoff
Sequence of Human LATS1 catalytic domain (O95835 590-1130): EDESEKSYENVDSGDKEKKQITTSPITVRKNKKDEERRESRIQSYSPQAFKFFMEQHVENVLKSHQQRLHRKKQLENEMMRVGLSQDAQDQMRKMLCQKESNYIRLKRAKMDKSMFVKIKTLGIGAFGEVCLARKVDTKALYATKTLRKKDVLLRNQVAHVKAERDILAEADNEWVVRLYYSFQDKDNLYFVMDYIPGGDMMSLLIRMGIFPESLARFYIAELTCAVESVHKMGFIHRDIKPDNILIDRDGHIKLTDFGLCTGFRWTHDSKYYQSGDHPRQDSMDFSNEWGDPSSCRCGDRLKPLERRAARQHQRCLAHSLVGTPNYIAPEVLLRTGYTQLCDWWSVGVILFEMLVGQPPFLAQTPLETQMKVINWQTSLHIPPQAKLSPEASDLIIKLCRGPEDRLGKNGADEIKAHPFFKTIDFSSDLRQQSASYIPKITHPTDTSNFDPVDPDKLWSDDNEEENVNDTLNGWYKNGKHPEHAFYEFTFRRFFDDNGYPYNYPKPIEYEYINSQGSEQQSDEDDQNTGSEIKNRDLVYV
Sequence of Human LATS1 catalytic domain (Q7L9L4 whole entry partner, the tested form may be a part): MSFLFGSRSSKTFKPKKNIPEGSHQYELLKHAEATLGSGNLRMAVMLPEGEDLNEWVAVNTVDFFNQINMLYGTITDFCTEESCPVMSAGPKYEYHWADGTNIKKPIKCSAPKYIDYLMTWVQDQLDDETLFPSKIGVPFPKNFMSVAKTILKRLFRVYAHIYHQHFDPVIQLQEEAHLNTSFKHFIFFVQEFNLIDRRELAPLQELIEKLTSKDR
Experimental: Human LATS1 catalytic domain which contains the amino acids E590-V1130 (accession NP_004681) was purified in-house. The LATS1 catalytic domain was co-purified with Mob1b (accession NP_775739). The LATS1 biochemical assay was performed using the HTRF KinEASE-STK S1 Kit (Cisbio, Cat #62ST1PEC), following the protocol from the manufacturer. Compounds were dispensed by the Echo Liquid Handler (Labcyte) into a white 384-well plate (PerkinElmer, Cat #6008289). 3 μL of 2×LATS1 enzyme solution was added to the compounds, followed by a 10 minute incubation at room temperature. Then, 3 μL of 2×ATP and STK S1 peptide solution was added to initiate the enzyme reaction for one hour at room temperature. The final condition of the reaction was 0.025 nM LATS1, 5000 μM ATP, 0.5 μM STK S1 peptide in 50 mM HEPES pH 7.2, 10 mM MgCl2, 0.1% BGG, 0.005% Brij-35, 1 mM DTT. The reaction was quenched and the HTRF signal was read.

[4] = system: pYAP(Ser127) in SW1990 cells; test: pYAP(Ser127) HTRF Cellular Assay; assay type: cell-based; settings: Homo sapiens, 4 hours
Experimental: The SW1990 cells were seeded at 8000 cells/well by adding 30 μL/well of cells in RPMI1640, 10% FBS, 2 mM glutamine culture media to a 384-well plate (Corning 3570). The cells were incubated overnight at 37° C. Next day, compounds were directly added to the cells using the Echo Liquid Handler (Labcyte), incubate at 37° C. for 4 hours.
The HTRF assay was performed using the Cisbio phospho-YAP Ser127 HTRF kit (64YAPPEG). The media was aspirated from the cells. 20 μL of 1X lysis/blocking buffer was added to the cells, gently shake for 30 minutes at room temperature. 1 μL of the premixed antibody solution (1:40 dilution of each phospho-YAP Eu Cryptate antibody and phospho-YAP d2 antibody) was added to the cells. The plate was sealed and incubated overnight at room temperature. The HTRF (665 nm/620 nm) signal was read on the PHERAstar reader (BMG Labtech). The EC50 values were calculated by fitting the % inhibition with a nonlinear four-parameter logistical equation.

[5] = molecular target: T1, Human LATS2 catalytic domain; test: Standard LATS2 HTRF Assay; assay type: biochemical; settings: asterisk: Standard LATS2 HTRF Assay, 50 μM ATP, 0.2 nM LATS2
Experimental: Human LATS2 catalytic domain which contains the amino acids G553-V1088 (accession NP_055387) was purified in-house. The LATS2 catalytic domain was co-purified with Mob1b (accession NP_775739). The LATS2 biochemical HTRF assay was performed using the HTRF KinEASE-STK S1 Kit (Cisbio, Cat #62ST1PEC), following the protocol from the manufacturer. Compounds were dispensed by the Echo Liquid Handler (Labcyte) into a white 384-well plate (PerkinElmer, Cat #6008289). 3 uL of 2×LATS2 enzyme solution was added to the compounds, following by a 10 minute incubation at room temperature. Then, 2×ATP and STK S1 peptide solution was added to initiate the one hour enzyme reaction at room temperature. The final condition of the reaction was 0.2 nM LATS2, 50 μM ATP, 0.5 μM STK S1 peptide in 50 mM HEPES pH7.2, 10 mM MgCl2, 0.1% BGG, 0.005% Brij-35, 1 mM DTT. The reaction was quenched by adding 6 uL of the detection mixture which contained Streptavidin XL665 and STK Antibody-Cryptate (Cisbio), incubate for 1 hour at room temperature. The HTRF (665 nm/620 nm) signal was read on the Envision plater reader (PerkinElmer). The IC50 values were determined by fitting the % inhibition with a nonlinear four-parameter logistical equation. The Ki values were calculated using the Cheng-Prusoff equation for a competitive inhibitor, IC50═Ki (1+S/Km)+M [E] with ATP Km for LATS2=105 μM.

T1 sequence (Q9NRM7 553-1088): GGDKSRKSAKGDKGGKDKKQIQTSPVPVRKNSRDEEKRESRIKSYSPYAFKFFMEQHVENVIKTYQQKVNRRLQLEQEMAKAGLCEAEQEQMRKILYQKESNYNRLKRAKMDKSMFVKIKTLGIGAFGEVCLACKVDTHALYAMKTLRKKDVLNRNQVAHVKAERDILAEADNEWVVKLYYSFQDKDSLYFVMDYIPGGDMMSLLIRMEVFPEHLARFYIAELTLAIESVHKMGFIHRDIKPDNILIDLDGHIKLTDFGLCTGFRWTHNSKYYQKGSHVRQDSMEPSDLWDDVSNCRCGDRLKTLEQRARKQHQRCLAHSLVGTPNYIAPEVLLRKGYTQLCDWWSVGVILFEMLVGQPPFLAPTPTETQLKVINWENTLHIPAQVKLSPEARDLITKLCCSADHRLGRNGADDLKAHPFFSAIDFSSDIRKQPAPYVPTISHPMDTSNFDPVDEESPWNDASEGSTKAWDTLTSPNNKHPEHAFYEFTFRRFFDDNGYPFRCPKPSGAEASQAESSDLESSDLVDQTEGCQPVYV
T1 sequence (Q7L9L4 whole entry partner, the tested form may be a part): as the sequence (Q7L9L4 whole entry partner, the tested form may be a part) above

| Structure (SMILES) | Ki [1] [nM] | EC50 [2] [nM] | Ki [3] [nM] | EC50 [4] [nM] | Ki [5] [nM] |
| --- | --- | --- | --- | --- | --- |
| O[C@H]1CCC[C@@H]1N1CCC2(CCN(c3nc(-c4ccncc4)nc4cnccc34)CC2)C1 (single isomer, unassigned) [Compound 129] | 0.076 | 140 | 0.0074 | 290 |  |
| FC(F)(F)c1[nH]ncc1-c1nc(N2CCC3(CCNC3)CC2)c2ccncc2n1 [Compound 154, 4-(2,8-diazaspiro[4.5]decan-8-yl)-2-(5-(trifluoromethyl)-1H-pyrazol-4-yl)pyrido[3,4-d]pyrimidine] |  | 7200 |  |  | 0.16 |
| c1ccc(Cc2cc3c(N4CCC5(CCNC5)CC4)nc(-c4ccncc4)nc3cn2)cc1 [Compound 157, 6-benzyl-2-(pyridin-4-yl)-4-(2,8-diazaspiro[4.5]decan-8-yl)pyrido[3,4-d]pyrimidine] | 0.067 | 240 | 0.049 | 510 |  |
| Cc1n[nH]cc1-c1nc(N2CCC3(CC2)CCN(C2CCCC2)C3)c2ccncc2n1 [Compound 147, 4-(2-cyclopentyl-2,8-diazaspiro[4.5]decan-8-yl)-2-(3-methyl-1H-pyrazol-4-yl)pyrido[3,4-d]pyrimidine] | 0.056 | 180 | 0.013 | 210 |  |
| O[C@@H]1CCC[C@H]1N1CCC2(CCN(c3nc(-c4ccncc4)nc4cnccc34)CC2)C1 (single isomer, unassigned) [Compound 128] | 0.073 | 300 | 0.0058 | 360 |  |
| c1cc(-c2nc(N3CCC4(CC3)CCN(C3CCCC3)C4)c3ccncc3n2)ccn1 [Compound 106, 4-(2-cyclopentyl-2,8-diazaspiro[4.5]decan-8-yl)-2-(pyridin-4-yl)pyrido[3,4-d]pyrimidine formate] | 0.053 | 300 |  | 230 |  |
| c1cc(-c2nc(N3CCC4(CCNC4)CC3)c3ccncc3n2)ccn1 [Compound 101, 2-(pyridin-4-yl)-4-(2,8-diazaspiro[4.5]decan-8-yl)pyrido[3,4-d]pyrimidine] | 0.38 | 990 | 0.051 | 1100 |  |
| FC(F)CN1CCC2(CCN(c3nc(-c4ccncc4)nc4cnccc34)CC2)C1 [Compound 127, 4-(2-(2,2-difluoroethyl)-2,8-diazaspiro[4.5]decan-8-yl)-2-(pyridin-4-yl)pyrido[3,4-d]pyrimidine] | 0.55 | 1300 |  | 3400 |  |
| c1ccc(CN2CCC3(CCN(c4nc(-c5ccncc5)nc5cnccc45)CC3)C2)cc1 [Compound 133, 4-(2-benzyl-2,8-diazaspiro[4.5]decan-8-yl)-2-(pyridin-4-yl)pyrido[3,4-d]pyrimidine] | 0.069 | 400 |  | 250 |  |
| c1cc(-c2nc(N3CCC4(CCN(CC5COC5)C4)CC3)c3ccncc3n2)ccn1 [Compound 124, 4-(2-(oxetan-3-ylmethyl)-2,8-diazaspiro[4.5]decan-8-yl)-2-(pyridin-4-yl)pyrido[3,4-d]pyrimidine] | 0.083 | 240 | 0.0068 | 260 |  |
| c1cc(-c2nc(N3CCC4(CC3)CCN([C@@H]3CCOC3)C4)c3ccncc3n2)ccn1 (single isomer, unassigned) [Compound 112] | 1.07 | 700 |  | 940 |  |
| CC1CC2(CCN(c3nc(-c4ccncc4)nc4cnccc34)CC2)CN1 (stereo not drawn) [Compound 167, 4-(3-methyl-2,8-diazaspiro[4.5]decan-8-yl)-2-(pyridin-4-yl)pyrido[3,4-d]pyrimidine] | 0.58 | 540 |  | 300 |  |
| CCN1CCC2(CCN(c3nc(-c4cn[nH]c4C)nc4cnccc34)CC2)C1 [Compound 151, 4-(2-ethyl-2,8-diazaspiro[4.5]decan-8-yl)-2-(5-methyl-1H-pyrazol-4-yl)pyrido[3,4-d]pyrimidine] | 0.09 | 470 |  | 390 |  |
| c1cc(-c2nc(N3CCC4(CC3)CCN([C@H]3CCOC3)C4)c3ccncc3n2)ccn1 (single isomer, unassigned) [Compound 113] | 0.82 | 660 |  | 1100 |  |

Other lines, results leading:

| Ki [1] [nM] | EC50 [2] [nM] | Ki [3] [nM] | EC50 [4] [nM] | Ki [5] [nM] | Structure (SMILES) |
| --- | --- | --- | --- | --- | --- |
| 0.13 | 310 | 0.0079 | 320 |  | C[C@@H](O)CN1CCC2(CCN(c3nc(-c4ccncc4)nc4cnccc34)CC2)C1 (single isomer, unassigned) [Compound 116] |
| 0.075 | 220 | 0.0079 | 330 |  | CC(C)(O)CN1CCC2(CCN(c3nc(-c4ccncc4)nc4cnccc34)CC2)C1 [Compound 110, 2-methyl-1-(8-(2-(pyridin-4-yl)pyrido[3,4-d]pyrimidin-4-yl)-2,8-diazaspiro[4.5]decan-2-yl)propan-2-ol] |
| 0.17 | 370 |  | 360 |  | OCCCN1CCC2(CCN(c3nc(-c4ccncc4)nc4cnccc34)CC2)C1 [Compound 120, 3-(8-(2-(pyridin-4-yl)pyrido[3,4-d]pyrimidin-4-yl)-2,8-diazaspiro[4.5]decan-2-yl)propan-1-ol] |
| 0.8 | 300 |  | 630 |  | COCCN1CCC2(CCN(c3nc(-c4ccncc4)nc4cnccc34)CC2)C1 [Compound 121, 4-(2-(2-methoxyethyl)-2,8-diazaspiro[4.5]decan-8-yl)-2-(pyridin-4-yl)pyrido[3,4-d]pyrimidine] |
| 0.98 | 350 | 0.011 | 430 |  | CN1CCC2(CCN(c3nc(-c4ccncc4)nc4cnccc34)CC2)C1 [Compound 102, 4-(2-methyl-2,8-diazaspiro[4.5]decan-8-yl)-2-(pyridin-4-yl)pyrido[3,4-d]pyrimidine] |
| 0.13 | 300 | 0.0063 | 310 |  | C[C@H](O)CN1CCC2(CCN(c3nc(-c4ccncc4)nc4cnccc34)CC2)C1 (single isomer, unassigned) [Compound 115] |
| 0.61 | 590 |  | 890 |  | CCN1CCC2(CCN(c3nc(-c4ccncc4)nc4cnccc34)CC2)C1 [Compound 138, 4-(2-ethyl-2,8-diazaspiro[4.5]decan-8-yl)-2-(pyridin-4-yl)pyrido[3,4-d]pyrimidine] |
| 3.08 | 2300 |  | 5800 |  | FC(F)(F)CN1CCC2(CCN(c3nc(-c4ccncc4)nc4cnccc34)CC2)C1 [Compound 105, 2-(pyridin-4-yl)-4-(2-(2,2,2-trifluoroethyl)-2,8-diazaspiro[4.5]decan-8-yl)pyrido[3,4-d]pyrimidine] |
